The values that follow come from patent US10258603B2 (priority 2014, dated 2019).

Structures are written as SMILES. pIC50: −log10 of the molar value.

For orientation: pIC50 means −log10 of the IC50, conventionally taken in molar units. A low value points to a large IC50.

In the experiment the target is T1, BRD4(BD1) (Homo sapiens, UniProt O60885).
T1 construct: 42-168 was cloned, expressed, and purified to; His; made in house
Kind of experiment: BRD4 AlphaLisa Binding Assay. An excerpt: IC50 Measurements for Inhibitors Using BRD4 AlphaLisa Binding Assay
In general terms: Bead proximity is the source of the signal in Alpha formats.
On to `C[C@@H](NC(=O)c1cn(C)c(=O)c2[nH]ccc12)C1CCCCC1` [Example 94], for which the pIC50 was 5.51.

Compound `COC[C@@H](NC(=O)c1cn(C)c(=O)c2[nH]ccc12)c1ccccc1` [Example 95] gave a pIC50 of 4.96.

Compound `Cn1cc(C(=O)N[C@H](C(=O)O)c2ccccc2)c2cc[nH]c2c1=O` [Example 96] had a pIC50 of 5.30.

`Cn1cc(C(=O)NCC2CCOCC2)c2cc[nH]c2c1=O` [Example 101]: the pIC50 was 4.77.

As for `CC(NC(=O)c1cn(C)c(=O)c2[nH]ccc12)c1ccccc1F` (stereo not drawn) [Example 116], the pIC50 was 5.37.

In turn, `CCOC(C)CNC(=O)c1cn(C)c(=O)c2[nH]ccc12` (stereo not drawn) [Example 117] showed a negative logarithm of the IC50 (pIC50) of 5.40.

Regarding `COc1ccccc1C(C)NC(=O)c1cn(C)c(=O)c2[nH]ccc12` (stereo not drawn) [Example 119], the pIC50 is 5.92.

As to `CC(C)C(NC(=O)c1cn(C)c(=O)c2[nH]ccc12)c1ccccc1` (stereo not drawn) [Example 123], the pIC50 was 4.96.

Consider `CC(NC(=O)c1cn(C)c(=O)c2[nH]ccc12)c1ccc(Cl)cc1` (stereo not drawn) [Example 126], for which the negative-log IC50 (pIC50) is 5.49. This pIC50 lies 0.53 log units higher than the previous one.

Regarding `Cc1ccccc1CCNC(=O)c1cn(C)c(=O)c2[nH]ccc12` [Example 127], the pIC50 is 5.92.

For `CC(c1ccccc1)N(C)C(=O)c1cn(C)c(=O)c2[nH]ccc12` (stereo not drawn) [Example 128], the negative-log IC50 (pIC50) is 4.80.

Compound `Cn1cc(C(=O)NCC2CCCCN2C(=O)OC(C)(C)C)c2cc[nH]c2c1=O` (stereo not drawn) [Example 132] gave a pIC50 of 4.89.

Consider `CC(C)c1cccc(N2CCC(N(C)C(=O)c3cn(C)c(=O)c4[nH]ccc34)CC2)c1` [Example 179, N-[1-(3-isopropylphenyl)-4-piperidyl]-N,6-dimethyl-7-oxo-1H-pyrrolo[2,3-c]pyridine-4-carboxamide], for which the pIC50 is 5.68. This pIC50 is 0.79 log units higher than that of the compound before.

Consider `CN(CC1CCN(Cc2ccccc2Cl)CC1)C(=O)c1cn(C)c(=O)c2[nH]ccc12` [Example 198], for which the pIC50 is 5.96.

Take `CN(C(=O)c1cn(C)c(=O)c2[nH]ccc12)C1CCN(Cc2ccccc2C#N)CC1` [Example 215]: the pIC50 is 5.42.

In turn, `COc1cccc(CN2CCC(N(C)C(=O)c3cn(C)c(=O)c4[nH]ccc34)CC2)c1` [Example 222] had a pIC50 of 4.80.

The compound `C[C@@H](NC(=O)c1cn(C)c(=O)c2[nH]ccc12)c1ccccc1` [Example 256, (R)-6-methyl-7-oxo-N-(1-phenylethyl)-6,7-dihydro-1Hpyrrolo[2,3-c]pyridine-4-carboxamide] had a pIC50 of 5.42.

`Cn1cc(C(=O)NCCc2ccccc2)c2cc[nH]c2c1=O` [Example 258]: the pIC50 was 6.10. This pIC50 is 0.68 log units higher than that of the compound before.

Take `COc1ccc(CNC(=O)c2cn(C)c(=O)c3[nH]ccc23)cc1` [Example 261]: the pIC50 was 5.57.

Compound `Cn1cc(C(=O)NCc2cccs2)c2cc[nH]c2c1=O` [Example 262] gave a pIC50 of 5.48. This pIC50 and that of the compound before are within 0.2 log units of each other.

For `Cn1cc(C(=O)NC2CCCCc3ccccc32)c2cc[nH]c2c1=O` (stereo not drawn) [Example 265, 6-methyl-7-oxo-N-(6,7,8,9-tetrahydro-5Hbenzo[7]annulen-5-yl)-6,7-dihydro-1H-pyrrolo[2,3-c]pyridine-4-carboxamide], the pIC50 was 5.28. This pIC50 lies 0.20 log units lower than the previous one.
